From patent US20120219613A1 (priority 2009, published 2012)

Columns and labels:
RVFV MP-12 = assay type: cell-based, Rift Valley fever virus
Vero cells [1] = system: Vero cells
NiV-pVSV [2] = assay type: cell-based
VSV-G pseudotyped VSV = assay type: cell-based, Vesicular Stomatitis virus
HPIV-3 = assay: microbe, parasite or virus in culture; assay type: cell-based; settings: Human respirovirus 3, read-out: Activity
Influenza A = assay: microbe, parasite or virus in culture; assay type: cell-based, WSN H1N1; settings: read-out: Activity
Vero cells [3] = assay type: cell-based
Adenovirus = assay: microbe, parasite or virus in culture; assay type: cell-based; settings: unidentified adenovirus, read-out: Activity
Junín = assay: organism not typed; assay type: cell-based; settings: read-out: Activity
[4] = male, Sprague-Dawley, rat, in vivo
live VSV and NiV-pVSV = assay type: cell-based
Murine Leukemia = assay: cells; assay type: cell-based, F57; settings: Mus musculus, read-out: Activity
NiV VLPs = assay type: cell-based, Nipah virus
in vivo = settings: male, Sprague-Dawley, rat, ip
Rift Valley Fever = assay: organism not typed; assay type: cell-based; settings: read-out: Activity
Reovirus = assay: microbe, parasite or virus in culture; assay type: cell-based; settings: Reovirus sp., read-out: Activity
NDV = assay type: cell-based, Newcastle Disease, rNDV/F3aa-GFP
Vaccinia = assay: microbe, parasite or virus in culture; assay type: cell-based, VTF1.1; settings: Orthopoxvirus vaccinia, read-out: Activity
HIV-1 (JRCSF) = assay type: cell-based
LaCrosse = assay: organism not typed; assay type: cell-based; settings: read-out: Activity
Ebola = assay: microbe, parasite or virus in culture; assay type: cell-based; settings: Zaire ebolavirus, read-out: Activity
[5] = system: Vero cells infected with pVSV; assay type: cell-based
Vero cells [6] = system: Vero cells; remark: listed apart in the source
Marburg = assay: organism not typed; assay type: cell-based, Musoke/Ravn; settings: read-out: Activity
Vesicular = assay: microbe, parasite or virus in culture; assay type: cell-based, Vesicular Stomatitis, Indiana
West Nile Virus = assay: microbe, parasite or virus in culture; assay type: cell-based; settings: read-out: Activity
PIV-5 = assay: organism not typed; assay type: cell-based; settings: read-out: Activity
[7] = mouse, in vivo
pVSV = assay type: cell-based
NiV-pVSV [8] = assay: microbe, parasite or virus in culture; assay type: cell-based, Nipah virus envelope pseudotyped onto VSV
[9] = system: NiV envelope mediated cell-cell fusion; assay type: cell-based
[10] = system: NiV-pseudotyped pVSV binding to ephrinB2; assay type: cell-based
Omsk = assay: organism not typed; assay type: cell-based, Omsk Hemorrhagic Fever, Guriev; settings: read-out: Activity
Coxsackie B = assay: organism not typed; assay type: cell-based; settings: read-out: Activity
HIV-1 = assay: microbe, parasite or virus in culture; assay type: cell-based; settings: Human immunodeficiency virus 1, read-out: Activity
RSSE = assay: organism not typed; assay type: cell-based, Russian Spring Summer Encephalitis, Sofiin; settings: read-out: Activity
Hepatitis C Virus = assay: microbe, parasite or virus in culture; assay type: cell-based; settings: read-out: Activity
Nipah = assay: organism not typed; assay type: cell-based, Malaysia
Yellow Fever = assay: organism not typed; assay type: cell-based, Asibi; settings: read-out: Activity
VSV transcription = assay type: biochemical, VSV-Indiana
Cowpox = assay: organism not typed; assay type: cell-based, Brighton; settings: read-out: Activity

## C=CCN1C(=O)/C(=C/c2ccc(-c3ccccc3)o2)SC1=S [LJ-001, (Z)-3-Allyl-5-(5-phenyl-2-furyl)methylene-4-oxothiazolidine-2-thione]
RVFV MP-12
  infectivity of gradient fractions: completely non-infectious
  reduction in infectivity: ≥ 5 log
Vero cells [1]
  toxic effects in AK and LD enzyme release assays: little to no toxic effects
NiV-pVSV [2]
  effect of compound pre-incubated with saturating liposomes on viral infection: no effect on viral infection
  effect of excess liposomes, virus pre-exposed to compound: no longer able to rescue viral infection
  effect of liposome size on binding or reversal of inhibition: no effect
  effect of liposomes, virus and liposomes simultaneously subjected to compound: competed off virus infection
VSV-G pseudotyped VSV
  reporter virus entry via Vesicular Stomatitis virus envelope proteins (VSV-G): inhibited reporter virus entry
HPIV-3
  IC50: 500 to 1000 nM
Influenza A
  IC50: < 500 nM
Vero cells [3]
  intercalation into cellular membranes: dose-dependent increase in fluorescence
Adenovirus
  IC50: > 10000 nM
Junín
  IC50: 500 to 1000 nM
[4]
  peak serum concentration, 20 mg/kg group versus 50 mg/kg group: higher peak serum concentration than the 50 mg/kg group
[4]; ip
  time until serum levels approach in vitro IC50 concentrations: about 2 hours
Live VSV and NiV-pVSV
  infectivity of treated virus after 4 h PBS wash and secondary repurification: remained non-infectious
  infectivity of treated virus after washing and repurification: non-infectious
Murine Leukemia
  IC50: 500 to 1000 nM
NiV VLPs
  cytoplasmic delivery of beta-lactamase matrix fusion protein: inhibited cytoplasmic delivery
In vivo
  half-life: ~4 h
Rift Valley Fever
  IC50: < 500 nM
Reovirus
  IC50: > 10000 nM
pVSV particles
  virion membrane morphology by EM: significant distortion of the viral membrane
NDV
  IC50: 500 to 1000 nM
Vaccinia
  IC50: 500 to 1000 nM
HIV-1 (JRCSF)
  sensitivity of passaged virus to compound: no evidence of decreased sensitivity
LaCrosse
  IC50: < 500 nM
Ebola
  IC50: 500 to 1000 nM
[5]
  inhibitory effect after washing pre-treated target cells: Washing the cells reversed the inhibitory effect
Vero cells [6]
  active cell metabolism (Alamar Blue uptake): no effect on active cell metabolism
Marburg
  IC50: 500 to 1000 nM
Vesicular
  infection and infectious spread of live VSV: inhibit infection and infectious spread
Vesicular; Vesicular stomatitis virus, read-out: Activity
  IC50: 500 to 1000 nM
West Nile Virus
  IC50: < 500 nM
PIV-5
  IC50: 500 to 1000 nM
[7]
  complete blood counts with differential: no difference relative to the vehicle control group
  hematocrit and hemoglobin levels: normal
  liver function tests, kidney function tests, serum electrolytes: all normal and equivalent to the vehicle control mice
  serum cholesterol levels: statistically significant elevation
  serum metabolites (glucose, phosphate, triglycerides): normal
  weight loss: < 10%
pVSV
  inhibitory effect versus time of addition: apparent only when the compound was added before or during, but not after, the viral infection period
NiV-pVSV [8]
  effect of pre-treatment temperature and duration on antiviral activity: no significant effect
  reporter virus entry via Nipah virus envelope (NiV-F/G): inhibited reporter virus entry
NiV-pVSV [8]; Vesicular stomatitis virus, Vero, read-out: in vitro IC50 concentrations
  IC50: ~1000 nM
[9]
  NiV envelope mediated cell-cell fusion: did not inhibit
[10]
  virus-cell binding: still bound cognate cell surface receptors
Omsk
  IC50: 500 to 1000 nM
Coxsackie B
  IC50: > 10000 nM
HIV-1
  IC50: 500 to 1000 nM
RSSE
  IC50: 500 to 1000 nM
Hepatitis C Virus
  IC50: < 500 nM
Nipah
  infection and infectious spread of live NiV: inhibit infection and infectious spread
Nipah; read-out: Activity
  IC50: 500 to 1000 nM
Yellow Fever
  IC50: < 500 nM
VSV transcription
  viral transcription, mRNA production, and mRNA capping of VSV: unaffected
Cowpox
  IC50: 1000 to 5000 nM
